In patent EP1561465A2, “Methods of use of fluoroquinolone compounds against bacteria” (LG Life Sciences, Ltd., priority 1999, dated 2001):
Converted amounts (≈) assume the structure as drawn. Where two headings read alike, the source gives them in different places.

What was measured:
Yersinia enterocolitica [1] = test: MIC by agar dilution (NCCLS M7-A4), 288 enteropathogenic isolates, eight quinolones; assay type: cell-based; details: Yersinia enterocolitica (n = 22)
Moraxella catarrhalis = test: MIC by agar dilution (NCCLS), 411 isolates Buenos Aires 1998-99; assay type: cell-based
[2] = parameters: species or system healthy volunteers; details: human, in vivo, po
E. coli [3] = test: MIC and MBC by microdilution in Mueller-Hinton broth, uropathogens; assay type: cell-based
Experimental: (§1) MICs and MBCs were determined by a microdilution method with Mueller-Hinton broth. An inoculum of 1.3-9.4 x 10^5 colony forming units (CFU) per ml was used.
(§2) Strains included a reference strain E. coli ATCC 25922, susceptible to nalidixic acid (Nal-S) and the following clinical isolates obtained from complicated UTI patients: E. coli (resistant to nalidixic acid), K. pneumoniae, P. mirabilis , P. aeruginosa, […] (3 strains) and Enterococcus faecalis (2 strains).

E. faecalis [4] = test: as above; assay type: cell-based; details: Enterococcus faecalis
Experimental: as §1, §2

K. pneumoniae [5] = test: as above; assay type: cell-based
Experimental: as §1, §2

P. aeruginosa [6] = test: as above; assay type: cell-based
Experimental: as §1, §2

S. aureus = test: as above; assay type: cell-based; details: Staphylococcus aureus
Experimental: as §1, §2

E. coli [7] = test: Urinary bactericidal titers (UBT) and AUBTC of volunteers' urine; assay type: cell-based; details: for AUBTC (range): urine after gemifloxacin 320 mg or ofloxacin 400 mg
K. pneumoniae [8] = test: as above; assay type: cell-based; details: K. pneumoniae (16) Laboratory No. 595; urine after gemifloxacin 320 mg or ofloxacin 400 mg
P. mirabilis = test: as above; assay type: cell-based; details: P. mirabilis (16) Laboratory No. 414; urine after gemifloxacin 320 mg or ofloxacin 400 mg
P. aeruginosa [9] = test: as above; assay type: cell-based; details: P. aeruginosa (16) Laboratory No. 568; urine after gemifloxacin 320 mg or ofloxacin 400 mg
E. faecalis [10] = test: as above; assay type: cell-based; details: urine after gemifloxacin 320 mg or ofloxacin 400 mg
Yersinia enterocolitica [11] = test: MIC by agar dilution (NCCLS M7-A4), 288 enteropathogenic isolates, gemifloxacin and 15 other antimicrobials; assay type: cell-based; details: Yersinia enterocolitica N= 22
[12] = E. faecalis Laboratory No. 55, inoculum 6.0 CFU 10^5/ml
[13] = E. faecalis Laboratory No. 60, inoculum 7.0 CFU 10^5/ml
[14] = S. aureus Laboratory No. 83, inoculum 7.1 CFU 10^5/ml
[15] = S. aureus Laboratory No. 161, inoculum 9.4 CFU 10^5/ml
[16] = S. aureus Laboratory No. 636, inoculum 5.6 CFU 10^5/ml

For `CC1COc2c(N3CCN(C)CC3)c(F)cc3c(=O)c(C(=O)O)cn1c23` (stereo not drawn) [Ofloxacin, ofloxacin], the “% Susceptible” value (Yersinia enterocolitica [1]) was 100%, the MIC50 (Yersinia enterocolitica [1]) was 0.12 µg/mL (≈ 0.332 µM) and the MIC90 (Yersinia enterocolitica [1]) was 0.12 µg/mL (≈ 0.332 µM). The “MIC Range” value (Yersinia enterocolitica [1]) was 0.03 to 0.5 µg/mL, the MIC90 (Moraxella catarrhalis; Moraxella catarrhalis) was 0.125 µg/mL (≈ 0.346 µM) and the “MIC Range” value (Moraxella catarrhalis; Moraxella catarrhalis (n = 59)) was 0.06 to 0.125 µg/mL. For the same compound, the tolerability [2] was “well tolerated”, the MIC (E. coli [3]; E. coli ATCC 25922, inoculum 1.3 CFU 10^5/ml) was 0.06 µg/mL (≈ 0.166 µM) and the MIC (E. coli [3]; E. coli Laboratory No. 523, inoculum 3.4 CFU 10^5/ml) was 0.5 µg/mL (≈ 1.38 µM). For the same compound, the MIC (E. coli [3]; Escherichia coli, ATCC25922, E. coli ATCC 25922 (reference strain), read-out: MIC) was 0.06 µg/mL (≈ 0.166 µM), the MBC (E. coli [3]; Escherichia coli, ATCC25922, E. coli ATCC 25922, inoculum 1.3 CFU 10^5/ml) was 0.06 µg/mL (≈ 0.166 µM) and the MBC (E. coli [3]; Escherichia coli, E. coli Laboratory No. 523, inoculum 3.4 CFU 10^5/ml) was 0.5 µg/mL (≈ 1.38 µM). The MIC (E. coli [3]; Escherichia coli, E. coli clinical isolate (0.06/0.5), read-out: MIC) was 0.5 µg/mL (≈ 1.38 µM), the MBC (E. faecalis [4]; [12]) was 128 µg/mL (≈ 354 µM) and the MIC (E. faecalis [4]; [12]) was 32 µg/mL (≈ 88.6 µM). The MBC (E. faecalis [4]; [13]) was 2 µg/mL (≈ 5.53 µM), the MIC (E. faecalis [4]; [13]) was 2 µg/mL (≈ 5.53 µM) and the MIC (E. faecalis [4]; E. faecalis isolate (0.06/2)) was 2 µg/mL (≈ 5.53 µM). It also gave an MIC (E. faecalis [4]; E. faecalis isolate (0.5/32)) of 32 µg/mL (≈ 88.6 µM), an MIC (K. pneumoniae [5]; K. pneumoniae Laboratory No. 595, inoculum 3.7 CFU 10^5/ml) of 0.06 µg/mL (≈ 0.166 µM) and an MBC (K. pneumoniae [5]; Klebsiella pneumoniae, K. pneumoniae Laboratory No. 595, inoculum 3.7 CFU 10^5/ml) of 0.06 µg/mL (≈ 0.166 µM). It also gave an MIC (K. pneumoniae [5]; Klebsiella pneumoniae, K. pneumoniae clinical isolate, read-out: MIC) of 0.06 µg/mL (≈ 0.166 µM), an MIC (P. aeruginosa [6]; P. aeruginosa Laboratory No. 568, inoculum 5.6 CFU 10^5/ml) of 4 µg/mL (≈ 11.1 µM) and an MBC (P. aeruginosa [6]; Pseudomonas aeruginosa, P. aeruginosa Laboratory No. 568, inoculum 5.6 CFU 10^5/ml) of 4 µg/mL (≈ 11.1 µM). It also gave an MIC (P. aeruginosa [6]; Pseudomonas aeruginosa, P. aeruginosa clinical isolate, read-out: MIC) of 4 µg/mL (≈ 11.1 µM), an MBC (S. aureus; [14]) of 0.25 µg/mL (≈ 0.692 µM) and an MIC (S. aureus; [14]) of 0.25 µg/mL (≈ 0.692 µM). For the same compound, the MBC (S. aureus; [15]) was 4 µg/mL (≈ 11.1 µM), the MIC (S. aureus; [15]) was 4 µg/mL (≈ 11.1 µM) and the MBC (S. aureus; [16]) was 32 µg/mL (≈ 88.6 µM). It also gave an MIC (S. aureus; [16]) of 32 µg/mL (≈ 88.6 µM), an MIC (S. aureus; S. aureus isolate (0.008/0.25)) of 0.25 µg/mL (≈ 0.692 µM) and an MIC (S. aureus; S. aureus isolate (0.25/4)) of 4 µg/mL (≈ 11.1 µM). The MIC (S. aureus; S. aureus isolate (2/32), quinolone-resistant) was 32 µg/mL (≈ 88.6 µM), the “AUBTC (range)” value (E. coli [7]; E. coli (16) ATCC 25922) was 537 (258-888) and the “AUBTC (range)” value (E. coli [7]; E. coli (16) Laboratory No. 523) was 276 (90-516). The “time for which median UBTs exceed 0” value (E. coli [7]; reference strain E. coli ATCC 25922, 320 mg gemifloxacin / 400 mg ofloxacin) was 4 days, the “AUBTC (range)” value (K. pneumoniae [8]) was 414 (180-636) and the “AUBTC (range)” value (P. mirabilis) was 438 (276-654). For the same compound, the “AUBTC (range)” value (P. aeruginosa [9]) was 99 (42-258), the “AUBTC (range)” value (E. faecalis [10]; E. faecalis (13) Laboratory No. 55) was 0 (0-54) and the “AUBTC (range)” value (E. faecalis [10]; E. faecalis (16) Laboratory No. 60) was 135 (90-204). For the same compound, the MIC (Yersinia enterocolitica [11]; 24 h, read-out: MIC (mg/L) Range) was 0.03 to 0.5 mg/L (≈ 0.083 to 1.38 µM), the MIC (Yersinia enterocolitica [11]; read-out: MIC (mg/L) 50%) was 0.12 mg/L (≈ 0.332 µM) and the MIC (Yersinia enterocolitica [11]; read-out: MIC (mg/L) 90%) was 0.12 mg/L (≈ 0.332 µM).
